Data reported in ChEMBL document CHEMBL4507285, “Data for DCP probe MRL-SYKi” (2021).

Assays:
[1] = molecular target: Tyrosine-protein kinase JAK2 (Homo sapiens, UniProt O60674); conditions: Compound concentration 100.0 nM
[2] = molecular target: Serine/threonine-protein kinase MAK (Homo sapiens) (UniProt P20794); conditions: Compound concentration 100.0 nM
[3] = molecular target: Inhibitor of nuclear factor kappa-B kinase subunit alpha (Homo sapiens) (UniProt O15111); conditions: Compound concentration 100.0 nM
[4] = molecular target: Serine/threonine-protein kinase MRCK alpha (Homo sapiens) (UniProt Q5VT25); conditions: Compound concentration 100.0 nM
[5] = molecular target: RAC-beta serine/threonine-protein kinase (Homo sapiens) (UniProt P31751); conditions: Compound concentration 100.0 nM
[6] = system: Tyrosine-protein kinase ABL1 (Homo sapiens), P00519 [Q252H]; conditions: Compound concentration 100.0 nM
[7] = molecular target: Serine/threonine-protein kinase PLK1 (Homo sapiens) (UniProt P53350); conditions: Compound concentration 100.0 nM
[8] = molecular target: Serine/threonine-protein kinase DCLK2 (Homo sapiens) (UniProt Q8N568); conditions: Compound concentration 100.0 nM
[9] = molecular target: Homeodomain-interacting protein kinase 4 (Homo sapiens) (UniProt Q8NE63); conditions: Compound concentration 100.0 nM
[10] = molecular target: Casein kinase I isoform gamma-2 (Homo sapiens) (UniProt P78368); conditions: Compound concentration 100.0 nM
[11] = molecular target: MAP kinase-interacting serine/threonine-protein kinase 2 (Homo sapiens) (UniProt Q9HBH9); conditions: Compound concentration 100.0 nM
[12] = molecular target: Dual specificity protein kinase TTK (Homo sapiens) (UniProt P33981); conditions: Compound concentration 100.0 nM
[13] = molecular target: Calcium/calmodulin-dependent protein kinase type 1B (Homo sapiens) (UniProt Q6P2M8); conditions: Compound concentration 100.0 nM
[14] = system: Receptor-type tyrosine-protein kinase FLT3 (Homo sapiens), P36888 [UNDEFINED MUTATION]; conditions: Compound concentration 100.0 nM
[15] = molecular target: Tyrosine-protein kinase receptor TYRO3 (Homo sapiens) (UniProt Q06418); conditions: Compound concentration 100.0 nM
[16] = molecular target: Alpha-2C adrenergic receptor (Homo sapiens) (UniProt P18825); conditions: Compound concentration 10.0 uM
[17] = molecular target: Cyclin-dependent kinase 9 (Homo sapiens) (UniProt P50750); conditions: Compound concentration 100.0 nM
[18] = molecular target: Leucine-rich repeat serine/threonine-protein kinase 2 (Homo sapiens) (UniProt Q5S007); conditions: Compound concentration 100.0 nM
[19] = molecular target: NUAK family SNF1-like kinase 2 (Homo sapiens) (UniProt Q9H093); conditions: Compound concentration 100.0 nM
[20] = molecular target: Muscarinic acetylcholine receptor M4 (Homo sapiens) (UniProt P08173); conditions: Compound concentration 10.0 uM
[21] = system: Receptor-type tyrosine-protein kinase FLT3 (Homo sapiens), P36888 [UNDEFINED MUTATION]; conditions: Compound concentration 100.0 nM; remark: listed apart in the source
[22] = molecular target: Ribosomal protein S6 kinase alpha-5 (Homo sapiens) (UniProt O75582); conditions: Compound concentration 100.0 nM
[23] = molecular target: Mitotic checkpoint serine/threonine-protein kinase BUB1 (Homo sapiens) (UniProt O43683); conditions: Compound concentration 100.0 nM
[24] = molecular target: cAMP-dependent protein kinase catalytic subunit alpha (Homo sapiens) (UniProt P17612); conditions: Compound concentration 100.0 nM
[25] = molecular target: Dual specificity protein kinase CLK3 (Homo sapiens) (UniProt P49761); conditions: Compound concentration 100.0 nM
[26] = molecular target: Mitogen-activated protein kinase kinase kinase 13 (Homo sapiens) (UniProt O43283); conditions: Compound concentration 100.0 nM
[27] = molecular target: Ephrin type-A receptor 4 (Homo sapiens) (UniProt P54764); conditions: Compound concentration 100.0 nM
[28] = molecular target: Tyrosine-protein kinase SYK (Homo sapiens, UniProt P43405); conditions: Compound concentration 100.0 nM
[29] = molecular target: D(3) dopamine receptor (Homo sapiens) (UniProt P35462); conditions: Compound concentration 10.0 uM
[30] = molecular target: Myosin-IIIb (Homo sapiens) (UniProt Q8WXR4); conditions: Compound concentration 100.0 nM
[31] = molecular target: Serine/threonine-protein kinase 3 (Homo sapiens) (UniProt Q13188); conditions: Compound concentration 100.0 nM
[32] = molecular target: RAC-gamma serine/threonine-protein kinase (Homo sapiens) (UniProt Q9Y243); conditions: Compound concentration 100.0 nM
[33] = molecular target: Activin receptor type-1-like (Homo sapiens) (UniProt P37023); conditions: Compound concentration 100.0 nM
[34] = molecular target: Serine/threonine-protein kinase VRK2 (Homo sapiens) (UniProt Q86Y07); conditions: Compound concentration 100.0 nM
[35] = molecular target: Casein kinase I isoform delta (Homo sapiens) (UniProt P48730); conditions: Compound concentration 100.0 nM
[36] = molecular target: Epidermal growth factor receptor (Homo sapiens) (UniProt P00533); conditions: Compound concentration 100.0 nM
[37] = molecular target: Serine/threonine-protein kinase 38-like (Homo sapiens) (UniProt Q9Y2H1); conditions: Compound concentration 100.0 nM
[38] = molecular target: Alpha-2A adrenergic receptor (Homo sapiens) (UniProt P08913); conditions: Compound concentration 10.0 uM
[39] = molecular target: Ribosomal protein S6 kinase alpha-4 (Homo sapiens) (UniProt O75676); conditions: Compound concentration 100.0 nM
[40] = molecular target: 5-hydroxytryptamine receptor 2B (Homo sapiens, UniProt P41595); conditions: Compound concentration 10.0 uM
[41] = molecular target: Mitogen-activated protein kinase 15 (Homo sapiens) (UniProt Q8TD08); conditions: Compound concentration 100.0 nM
[42] = molecular target: NT-3 growth factor receptor (Homo sapiens, UniProt Q16288); conditions: Compound concentration 100.0 nM
[43] = molecular target: Cyclin-dependent kinase 16 (Homo sapiens) (UniProt Q00536); conditions: Compound concentration 100.0 nM
[44] = molecular target: Phosphatidylinositol 4,5-bisphosphate 3-kinase catalytic subunit beta isoform (Homo sapiens) (UniProt P42338); conditions: Compound concentration 100.0 nM
[45] = system: Mast/stem cell growth factor receptor Kit (Homo sapiens), P10721 [L576P]; conditions: Compound concentration 100.0 nM

Sequence of Receptor-type tyrosine-protein kinase FLT3 (Homo sapiens), P36888 [UNDEFINED MUTATION] (P36888 whole entry, looked up, change not shown): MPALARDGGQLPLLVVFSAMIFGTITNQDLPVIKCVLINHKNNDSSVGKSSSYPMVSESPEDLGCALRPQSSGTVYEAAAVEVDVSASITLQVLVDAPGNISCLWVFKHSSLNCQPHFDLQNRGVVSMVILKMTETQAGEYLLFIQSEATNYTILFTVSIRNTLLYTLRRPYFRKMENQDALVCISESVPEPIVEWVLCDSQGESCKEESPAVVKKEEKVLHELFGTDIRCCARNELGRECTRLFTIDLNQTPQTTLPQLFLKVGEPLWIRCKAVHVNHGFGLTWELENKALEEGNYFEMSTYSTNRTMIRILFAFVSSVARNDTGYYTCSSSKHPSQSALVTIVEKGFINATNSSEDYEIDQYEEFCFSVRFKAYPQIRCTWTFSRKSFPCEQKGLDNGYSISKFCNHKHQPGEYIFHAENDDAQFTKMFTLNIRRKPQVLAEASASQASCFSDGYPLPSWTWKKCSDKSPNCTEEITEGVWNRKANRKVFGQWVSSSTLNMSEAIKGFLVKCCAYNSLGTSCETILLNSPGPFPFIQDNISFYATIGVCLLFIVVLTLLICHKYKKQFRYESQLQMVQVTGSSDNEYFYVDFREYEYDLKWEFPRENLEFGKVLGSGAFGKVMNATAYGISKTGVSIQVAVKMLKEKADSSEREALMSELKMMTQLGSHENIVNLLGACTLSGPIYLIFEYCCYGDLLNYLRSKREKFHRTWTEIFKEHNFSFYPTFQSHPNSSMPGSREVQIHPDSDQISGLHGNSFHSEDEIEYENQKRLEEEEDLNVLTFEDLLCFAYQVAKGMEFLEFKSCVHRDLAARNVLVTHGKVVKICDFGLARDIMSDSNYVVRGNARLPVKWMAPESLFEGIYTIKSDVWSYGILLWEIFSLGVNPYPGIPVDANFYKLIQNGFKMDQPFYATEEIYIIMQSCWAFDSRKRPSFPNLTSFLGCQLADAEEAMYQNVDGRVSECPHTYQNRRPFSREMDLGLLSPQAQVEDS
Sequence of Dual specificity protein kinase CLK3 (Homo sapiens) (P49761 whole entry, looked up): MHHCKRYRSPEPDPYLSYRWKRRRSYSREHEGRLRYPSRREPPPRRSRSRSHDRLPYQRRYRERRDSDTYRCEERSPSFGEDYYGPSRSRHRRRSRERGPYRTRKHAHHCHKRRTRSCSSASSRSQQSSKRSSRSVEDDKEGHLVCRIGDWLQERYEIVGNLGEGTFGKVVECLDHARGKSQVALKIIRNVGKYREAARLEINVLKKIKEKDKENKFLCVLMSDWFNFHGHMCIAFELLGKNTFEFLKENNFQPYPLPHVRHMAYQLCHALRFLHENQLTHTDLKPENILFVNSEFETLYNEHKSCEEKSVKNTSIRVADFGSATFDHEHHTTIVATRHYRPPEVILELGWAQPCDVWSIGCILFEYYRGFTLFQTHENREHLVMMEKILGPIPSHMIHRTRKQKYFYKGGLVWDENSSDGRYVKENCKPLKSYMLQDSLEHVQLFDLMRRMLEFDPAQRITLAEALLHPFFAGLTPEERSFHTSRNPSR
Sequence of Serine/threonine-protein kinase 3 (Homo sapiens) (Q13188 whole entry): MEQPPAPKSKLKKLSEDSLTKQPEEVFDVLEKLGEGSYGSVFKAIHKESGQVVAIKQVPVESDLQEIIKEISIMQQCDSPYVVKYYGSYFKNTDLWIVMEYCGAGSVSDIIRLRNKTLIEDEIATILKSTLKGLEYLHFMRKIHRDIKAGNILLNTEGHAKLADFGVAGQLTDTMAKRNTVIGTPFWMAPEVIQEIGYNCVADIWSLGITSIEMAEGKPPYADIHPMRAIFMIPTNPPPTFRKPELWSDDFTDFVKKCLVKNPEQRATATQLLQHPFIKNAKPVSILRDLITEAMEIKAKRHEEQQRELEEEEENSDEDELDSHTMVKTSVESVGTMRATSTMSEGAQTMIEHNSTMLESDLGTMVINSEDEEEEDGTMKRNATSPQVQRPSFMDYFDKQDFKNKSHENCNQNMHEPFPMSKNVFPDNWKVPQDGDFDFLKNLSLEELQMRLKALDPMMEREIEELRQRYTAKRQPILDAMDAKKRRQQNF
Sequence of Tyrosine-protein kinase JAK2 (O60674 whole entry): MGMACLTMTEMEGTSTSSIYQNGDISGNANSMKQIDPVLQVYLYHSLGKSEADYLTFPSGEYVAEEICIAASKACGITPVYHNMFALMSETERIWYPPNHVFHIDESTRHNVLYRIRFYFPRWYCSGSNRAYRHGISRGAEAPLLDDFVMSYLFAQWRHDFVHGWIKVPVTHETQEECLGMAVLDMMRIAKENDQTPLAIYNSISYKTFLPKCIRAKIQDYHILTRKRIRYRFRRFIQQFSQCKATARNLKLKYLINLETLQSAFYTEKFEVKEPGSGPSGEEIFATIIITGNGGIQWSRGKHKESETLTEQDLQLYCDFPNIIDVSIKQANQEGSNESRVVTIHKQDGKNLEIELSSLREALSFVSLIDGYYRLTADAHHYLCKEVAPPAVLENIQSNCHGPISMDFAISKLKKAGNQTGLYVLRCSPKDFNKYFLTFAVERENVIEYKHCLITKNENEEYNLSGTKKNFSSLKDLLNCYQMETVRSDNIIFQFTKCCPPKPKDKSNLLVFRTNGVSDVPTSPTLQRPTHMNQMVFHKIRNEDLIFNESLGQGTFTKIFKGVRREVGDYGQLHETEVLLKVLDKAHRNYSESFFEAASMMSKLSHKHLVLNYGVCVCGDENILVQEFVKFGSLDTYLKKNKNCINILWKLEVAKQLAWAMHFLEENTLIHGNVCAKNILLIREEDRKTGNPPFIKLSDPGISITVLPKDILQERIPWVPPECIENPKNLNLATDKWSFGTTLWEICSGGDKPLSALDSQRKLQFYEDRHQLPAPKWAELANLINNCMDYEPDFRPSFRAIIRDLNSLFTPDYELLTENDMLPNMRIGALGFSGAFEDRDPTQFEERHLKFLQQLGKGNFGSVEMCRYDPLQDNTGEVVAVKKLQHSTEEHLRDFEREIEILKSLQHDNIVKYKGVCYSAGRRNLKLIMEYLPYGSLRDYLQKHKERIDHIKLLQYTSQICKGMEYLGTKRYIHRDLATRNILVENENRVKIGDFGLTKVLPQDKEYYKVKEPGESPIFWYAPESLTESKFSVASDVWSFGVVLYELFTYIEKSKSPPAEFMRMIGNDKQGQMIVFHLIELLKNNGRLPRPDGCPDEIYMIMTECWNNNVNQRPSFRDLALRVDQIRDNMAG
Sequence of RAC-gamma serine/threonine-protein kinase (Homo sapiens) (Q9Y243 whole entry): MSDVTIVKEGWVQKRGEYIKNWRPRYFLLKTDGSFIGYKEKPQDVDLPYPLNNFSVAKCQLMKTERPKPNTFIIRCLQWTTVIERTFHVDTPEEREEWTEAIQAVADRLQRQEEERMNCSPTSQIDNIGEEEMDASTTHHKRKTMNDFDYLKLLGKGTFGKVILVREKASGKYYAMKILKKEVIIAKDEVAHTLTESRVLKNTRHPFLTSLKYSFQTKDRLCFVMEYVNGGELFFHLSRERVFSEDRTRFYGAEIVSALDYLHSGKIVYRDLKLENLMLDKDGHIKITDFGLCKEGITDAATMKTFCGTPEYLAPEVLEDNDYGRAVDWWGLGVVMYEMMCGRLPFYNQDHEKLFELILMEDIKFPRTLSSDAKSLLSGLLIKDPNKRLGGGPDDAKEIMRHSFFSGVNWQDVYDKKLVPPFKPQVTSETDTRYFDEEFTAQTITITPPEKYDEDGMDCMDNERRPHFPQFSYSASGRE
Sequence of Serine/threonine-protein kinase MAK (Homo sapiens) (P20794 whole entry): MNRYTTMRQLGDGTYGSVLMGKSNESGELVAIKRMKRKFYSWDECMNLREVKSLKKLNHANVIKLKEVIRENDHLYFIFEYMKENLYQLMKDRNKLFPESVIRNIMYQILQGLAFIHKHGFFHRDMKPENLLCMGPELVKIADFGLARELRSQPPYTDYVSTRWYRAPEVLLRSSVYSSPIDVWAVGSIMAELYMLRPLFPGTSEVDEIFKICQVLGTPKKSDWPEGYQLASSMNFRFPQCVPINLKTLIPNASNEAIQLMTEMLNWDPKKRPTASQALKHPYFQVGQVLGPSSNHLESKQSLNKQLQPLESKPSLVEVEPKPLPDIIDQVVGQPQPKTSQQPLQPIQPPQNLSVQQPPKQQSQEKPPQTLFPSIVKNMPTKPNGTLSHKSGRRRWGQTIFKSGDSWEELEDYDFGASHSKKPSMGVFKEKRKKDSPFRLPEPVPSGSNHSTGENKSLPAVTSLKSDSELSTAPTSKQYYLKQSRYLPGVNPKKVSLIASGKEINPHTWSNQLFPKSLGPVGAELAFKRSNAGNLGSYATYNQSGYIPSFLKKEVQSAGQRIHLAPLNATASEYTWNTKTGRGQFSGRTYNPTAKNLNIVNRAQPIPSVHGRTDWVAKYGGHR
Sequence of Cyclin-dependent kinase 9 (Homo sapiens) (P50750 whole entry): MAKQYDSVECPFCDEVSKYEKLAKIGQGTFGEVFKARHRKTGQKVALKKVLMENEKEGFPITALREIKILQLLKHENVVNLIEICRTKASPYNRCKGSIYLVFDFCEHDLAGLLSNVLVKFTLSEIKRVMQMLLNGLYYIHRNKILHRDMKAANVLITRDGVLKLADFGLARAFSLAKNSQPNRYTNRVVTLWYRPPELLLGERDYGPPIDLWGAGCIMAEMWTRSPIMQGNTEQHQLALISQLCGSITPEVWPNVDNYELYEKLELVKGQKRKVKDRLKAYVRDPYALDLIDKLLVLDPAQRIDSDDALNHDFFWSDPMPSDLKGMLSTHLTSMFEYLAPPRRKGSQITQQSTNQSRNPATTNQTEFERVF
Sequence of Serine/threonine-protein kinase 38-like (Homo sapiens) (Q9Y2H1 2-464 limits assumed): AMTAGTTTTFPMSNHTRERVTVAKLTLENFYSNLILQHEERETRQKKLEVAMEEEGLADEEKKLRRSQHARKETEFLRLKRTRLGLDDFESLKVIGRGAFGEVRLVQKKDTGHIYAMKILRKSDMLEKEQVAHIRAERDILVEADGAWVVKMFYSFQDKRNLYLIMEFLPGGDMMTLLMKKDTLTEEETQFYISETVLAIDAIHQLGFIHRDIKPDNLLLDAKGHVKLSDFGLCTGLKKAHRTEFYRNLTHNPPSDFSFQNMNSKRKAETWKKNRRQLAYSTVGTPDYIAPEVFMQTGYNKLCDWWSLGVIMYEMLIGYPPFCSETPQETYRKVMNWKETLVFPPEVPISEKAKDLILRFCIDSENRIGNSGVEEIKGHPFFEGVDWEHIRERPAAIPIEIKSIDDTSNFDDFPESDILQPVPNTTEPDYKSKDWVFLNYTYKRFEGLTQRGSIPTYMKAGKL

SMILES: Cc1ccc(-c2cnc([C@@]3(O)CC[C@H](C(=O)O)C(C)(C)C3)s2)cc1Nc1cccc(C(F)(F)F)n1 [MRL-SYKi-NC]
- residual activity [1]: 96.6%
- residual activity [2]: 93.9%
- residual activity [3]: 69.7%
- residual activity [4]: 100%
- residual activity [5]: 100%
- residual activity [6]: 75.4%
- residual activity [7]: 20.2%
- residual activity [8]: 100%
- residual activity [9]: 97.7%
- residual activity [10]: 100%
- residual activity [11]: 100%
- residual activity [12]: 78.8%
- residual activity [13]: 95.9%
- residual activity [14]: 97.5%
- residual activity [15]: 100%
- inhibition [16]: 11.8%
- residual activity [17]: 100%
- residual activity [18]: 87.4%
- residual activity [19]: 93.1%
- inhibition [20]: 20%
- residual activity [21]: 56.9%
- residual activity [22]: 100%
- residual activity [23]: 100%
- residual activity [24]: 100%
- residual activity [25]: 76%
- residual activity [26]: 100%
- residual activity [27]: 100%
- residual activity [28]: 90%
- inhibition [29]: -8.44%
- residual activity [30]: 100%
- residual activity [31]: 98.1%
- residual activity [32]: 82.8%
- residual activity [33]: 100%
- residual activity [34]: 100%
- residual activity [35]: 92.5%
- residual activity [36]: 69.4%
- residual activity [37]: 100%
- inhibition [38]: 34.5%
- residual activity [39]: 81.3%
- inhibition [40]: 77.9%
- residual activity [41]: 80.3%
- residual activity [42]: 80%
- residual activity [43]: 93%
- residual activity [44]: 77.1%
- residual activity [45]: 100%

SMILES: Cc1cc(Nc2nccc(C)n2)cc(-c2cnc([C@@]3(O)CC[C@H](C(=O)O)C(C)(C)C3)s2)c1 [MRL-SYKi]
- residual activity [1]: 45.5%
- residual activity [2]: 73.8%
- residual activity [3]: 100%
- residual activity [4]: 86.2%
- residual activity [5]: 100%
- residual activity [6]: 86.9%
- residual activity [7]: 100%
- residual activity [8]: 90.1%
- residual activity [9]: 75.6%
- residual activity [10]: 94.5%
- residual activity [11]: 74.7%
- residual activity [12]: 74.8%
- residual activity [13]: 78.1%
- residual activity [14]: 59.1%
- residual activity [15]: 60.2%
- inhibition [16]: -3.94%
- residual activity [17]: 100%
- residual activity [18]: 87.1%
- residual activity [19]: 100%
- inhibition [20]: 16.7%
- residual activity [21]: 100%
- residual activity [22]: 100%
- residual activity [23]: 100%
- residual activity [24]: 100%
- residual activity [25]: 100%
- residual activity [26]: 100%
- residual activity [27]: 78.6%
- residual activity [28]: 0.9%
- inhibition [29]: -5.53%
- residual activity [30]: 76.1%
- residual activity [31]: 100%
- residual activity [32]: 100%
- residual activity [33]: 66.5%
- residual activity [34]: 100%
- residual activity [35]: 100%
- residual activity [36]: 100%
- residual activity [37]: 100%
- inhibition [38]: -2.14%
- residual activity [39]: 100%
- inhibition [40]: 6.38%
- residual activity [41]: 100%
- residual activity [42]: 82.6%
- residual activity [43]: 100%
- residual activity [44]: 100%
- residual activity [45]: 85.1%
